Measured values reported in PMC12655637, “Design, Synthesis, and Mechanistic Study of Novel Ciprofloxacin/Thiazole Chalcone Hybrids as Potential Anticancer Agents” (Pharmaceuticals, 2025).
Read-outs that look alike come from different tables or passages of the source.

Tests used:
Test in all cases: NCI-60 screening, one-dose (10 µM) and five-dose, SRB
A549/ATCC = type: cell-based, human; conditions: Homo sapiens, 10 μM, Non-Small-Cell Lung Cancer, read-out: Growth percentage
HL-60(TB) = type: cell-based, human; conditions: Homo sapiens, HL-60, 10 μM; HL-60(TB), Leukemia; read-out: Growth percentage
SK-MEL-2 = type: cell-based, human; conditions: Homo sapiens; 10 μM; SK-MEL-2, Melanoma; read-out: Growth percentage
HS 578T = type: cell-based, human; conditions: Homo sapiens, 10 μM, Breast Cancer, read-out: Growth percentage
CCRF-CEM = type: cell-based, human; conditions: Homo sapiens, 10 μM, Leukemia, read-out: Growth percentage
NCI-H522 = type: cell-based, human; conditions: Homo sapiens; 10 μM; NCI-H522, Non-Small-Cell Lung Cancer; read-out: Growth percentage
MDA-MB231/ATCC = type: cell-based; conditions: 10 μM; MDA-MB231/ATCC, Breast Cancer
NCI-H460 = type: cell-based, human; conditions: Homo sapiens, NCI-H460, 10 μM; NCI-H460, Non-Small-Cell Lung Cancer; read-out: Growth percentage
SNB-19 = type: cell-based; conditions: Homo sapiens
COLO 205 = type: cell-based, human; conditions: Homo sapiens; 10 μM; COLO 205, Colon Cancer; read-out: Growth percentage
HOP-62 = type: cell-based, human; conditions: Homo sapiens, HOP-62, 10 μM; HOP-62, Non-Small-Cell Lung Cancer; read-out: Growth percentage
NCI-H226 = type: cell-based, human; conditions: Homo sapiens; 10 μM; NCI-H226, Non-Small-Cell Lung Cancer; read-out: Growth percentage
SK-MEL-28 = type: cell-based, human; conditions: Homo sapiens; 10 μM; SK-MEL-28, Melanoma; read-out: Growth percentage
MCF7 = type: cell-based, human; conditions: Homo sapiens, MCF7, 10 μM; MCF7, Breast Cancer; read-out: Growth percentage
U251 = type: cell-based, human; conditions: Homo sapiens, U-251; 10 μM; U251, CNS Cancer; read-out: Growth percentage
MDA-MB-468 = type: cell-based, human; conditions: Homo sapiens, MDA-MB-468, 10 μM; MDA-MB-468, Breast Cancer; read-out: Growth percentage
From the text: Control cells Test cells FLD
available usually at NCI library.
An aliquot of frozen drug concentrate is […]

HCT-15 = type: cell-based, human; conditions: Homo sapiens; 10 μM; HCT-15, Colon Cancer; read-out: Growth percentage
SF-539 = type: cell-based, human; conditions: Homo sapiens, SF-539, 10 μM; SF-539, CNS Cancer; read-out: Growth percentage
CAKI-1 = type: cell-based; conditions: Homo sapiens
LOX IMVI = type: cell-based, human; conditions: Homo sapiens, 10 μM, Melanoma, read-out: Growth percentage
OVCAR-8 = type: cell-based, human; conditions: Homo sapiens; 10 μM; OVCAR-8, Ovarian Cancer; read-out: Growth percentage
PC-3 = type: cell-based, human; conditions: Homo sapiens; 10 μM; PC-3, Prostate Cancer; read-out: Growth percentage
NCI/ADR-RES = type: cell-based, human; conditions: Homo sapiens, 10 μM, Ovarian Cancer, read-out: Growth percentage
SN12C = type: cell-based, human; conditions: Homo sapiens, 10 μM, Renal Cancer, read-out: Growth percentage
SF-268 = type: cell-based, human; conditions: Homo sapiens; 10 μM; SF-268, CNS Cancer; read-out: Growth percentage
K-562 = type: cell-based, human; conditions: Homo sapiens, K562, 10 μM; K-562, Leukemia; read-out: Growth percentage
[1] = 10 μM, SNB-19, CNS Cancer, read-out: Growth percentage
[2] = 10 μM, CAKI-1, Renal Cancer, read-out: Growth percentage

SMILES | activity at 10 µM (A549/ATCC) [%] | activity at 10 µM (HL-60(TB)) [%] | activity at 10 µM (SK-MEL-2) [%] | activity at 10 µM (HS 578T) [%] | activity at 10 µM (CCRF-CEM) [%] | activity at 10 µM (NCI-H522) [%] | Growth percentage (MDA-MB231/ATCC) [%] | activity at 10 µM (NCI-H460) [%] | activity at 10 µM (COLO 205) [%] | activity at 10 µM (HOP-62) [%] | activity at 10 µM (NCI-H226) [%] | activity at 10 µM (SK-MEL-28) [%] | activity at 10 µM (MCF7) [%] | activity at 10 µM (U251) [%] | activity at 10 µM (MDA-MB-468) [%] | activity at 10 µM (HCT-15) [%] | activity at 10 µM (SF-539) [%] | activity at 10 µM (LOX IMVI) [%] | activity at 10 µM (OVCAR-8) [%] | activity at 10 µM (PC-3) [%] | other results
Cc1nc(SCC(=O)N2CCN(c3cc4c(cc3F)c(=O)c(C(=O)O)cn4C3CC3)CC2)sc1C(=O)/C=C/c1ccc(Cl)cc1 [Compound 4c, (E)-7-(4-(2-((5-(3-(4-Chlorophenyl)acryloyl)-4-methylthiazol-2-yl)thio)acetyl)piperazin-1-yl)-1-cyclopropyl-6-fluoro-4-oxo-1,4-dihydroquinoline-3-carboxylic Acid] | 115 | 92.9 | 99.4 | 105 | 102 | 95.9 | 100.1 | 106 | 107 | 122 | 107 | 100 | 52.9 | 111 | 110 | 102 | 97.7 | 80.9 | 76.3 | 100 | activity at 10 µM (SNB-19; SNB-19, read-out: Growth percentage): 100%; activity at 10 µM (CAKI-1; CAKI-1, read-out: Growth percentage): 100%; activity at 10 µM (NCI/ADR-RES): 98.9%; activity at 10 µM (SN12C): 96.7%; activity at 10 µM (SF-268): 180%; activity at 10 µM (K-562): 93.1%
Cc1nc(SCC(=O)N2CCN(c3cc4c(cc3F)c(=O)c(C(=O)O)cn4C3CC3)CC2)sc1C(=O)/C=C/c1ccc(F)cc1 [Compound 4e, (E)-1-Cyclopropyl-6-fluoro-7-(4-(2-((5-(3-(4-fluorophenyl)acryloyl)-4-methylthiazol-2-yl)thio)acetyl)piperazin-1-yl)-4-oxo-1,4-dihydroquinoline-3-carboxylic Acid] | 104 | 107 | 104 | 105 | 104 | 98.2 | 101.1 | 108 | 119 | 108 | 98.3 | 116 | 70.6 | 114 | 106 | 96.8 | 99 | 91.2 | 105 | 96.6 | activity at 10 µM (SNB-19; [1]): 101%; activity at 10 µM (CAKI-1; [2]): 97.4%; activity at 10 µM (NCI/ADR-RES): 104%; activity at 10 µM (SN12C): 99.5%; activity at 10 µM (SF-268): 111%; activity at 10 µM (K-562): 98.2%
Cc1nc(SCC(=O)N2CCN(c3cc4c(cc3F)c(=O)c(C(=O)O)cn4C3CC3)CC2)sc1C(=O)/C=C/c1ccc(Br)cc1 [Compound 4f, (E)-7-(4-(2-((5-(3-(4-Bromophenyl)acryloyl)-4-methylthiazol-2-yl)thio)acetyl)piperazin-1-yl)-1-cyclopropyl-6-fluoro-4-oxo-1,4-dihydroquinoline-3-carboxylic Acid] | 107 | 83.3 | 105 | 99.6 | 106 | 105 | 98.6 | 107 | 112 | 94.3 | 107 | 114 | 70.8 | 98.4 | 109 | 106 | 89.9 | 90.5 | 75 | 102 | activity at 10 µM (SNB-19; [1]): 93.8%; activity at 10 µM (CAKI-1; [2]): 101%; activity at 10 µM (NCI/ADR-RES): 107%; activity at 10 µM (SN12C): 101%; activity at 10 µM (SF-268): 116%; activity at 10 µM (K-562): 96.2%
Cc1nc(SCC(=O)N2CCN(c3cc4c(cc3F)c(=O)c(C(=O)O)cn4C3CC3)CC2)sc1C(=O)/C=C/c1cccc([N+](=O)[O-])c1 [Compound 4g, (E)-1-Cyclopropyl-6-fluoro-7-(4-(2-((4-methyl-5-(3-(3-nitrophenyl)acryloyl)thiazol-2-yl)thio)acetyl)piperazin-1-yl)-4-oxo-1,4-dihydroquinoline-3-carboxylic Acid] | 90.3 | 80.5 | 68.9 | 99.1 | 74.5 | 72.3 | 92.4 | 106 | 90.5 | 94.5 | 102 | 80.8 | 11.6 | 50.7 | 92.8 | 71.7 | 64.5 | 34.2 | 69.2 | 112 | activity at 10 µM (SNB-19; [1]): 87.7%; activity at 10 µM (CAKI-1; [2]): 92.6%; activity at 10 µM (NCI/ADR-RES): 102%; activity at 10 µM (SN12C): 65.4%; activity at 10 µM (SF-268): 172%; activity at 10 µM (K-562): 29.3%
Cc1nc(SCC(=O)N2CCN(c3cc4c(cc3F)c(=O)c(C(=O)O)cn4C3CC3)CC2)sc1C(=O)/C=C/c1ccc([N+](=O)[O-])cc1 [Compound 4h, (E)-1-Cyclopropyl-6-fluoro-7-(4-(2-((4-methyl-5-(3-(4-nitrophenyl)acryloyl)thiazol-2-yl)thio)acetyl)piperazin-1-yl)-4-oxo-1,4-dihydroquinoline-3-carboxylic Acid] | 99.7 | 80.9 | 87.7 | 99.6 | 45.7 | 27.9 | 94.5 | 99.4 | 95.9 | 88.3 | 87.9 | 60 | 7.2 | 59.9 | 85.2 | 62.3 | 67.9 | 28.3 | 68.9 | 85.9 | activity at 10 µM (SNB-19; [1]): 72.2%; activity at 10 µM (CAKI-1; [2]): 116%; activity at 10 µM (NCI/ADR-RES): 88.8%; activity at 10 µM (SN12C): 78.3%; activity at 10 µM (SF-268): 81.1%; activity at 10 µM (K-562): 28.9%
